In ChEMBL document CHEMBL5727769, “Tricyclic fused derivatives of 1-(cyclo)alkyl pyridin-2-one useful for the treatment of cancer” (2020):

Target: Bromodomain-containing protein 4 (Homo sapiens, UniProt O60885)
Experiment: AlphaLISA Assay: Compounds were diluted by step-down dilution method (final concentration of DMSO was 1%) and added to the wells of a 384 well opti plate at desired concentrations. 5 nM BDR4-BD1 enzyme (produced in-house) and 12 nM of biotinylated substrate were added to the wells, covered and incubated at room temperature (RT) for 1 h. At the end of 1 h 250 ng of GSH acceptor beads were added to the well and incubated for 1 h at RT; then 500 ng of streptavidin donor beads were added and incubated again for 1 h at RT. Plates were read in a Pherastar reader at 680 nm excitation and 570 nm emission

## CCNC(=O)CC1N=C(c2ccc(Cl)cc2)c2cc(OC)ccc2-c2cn(C)c(=O)cc21 (racemic)
  IC50: 1.6 nM
